Assays:
Type in all cases: cell-based
[1] = system: Human Acute Myelomonocytic Leukemia HL-60; test: Cell proliferation experiment (Alarm blue, 72 h, EC50); settings: HL-60 cells
How it was run: (§1)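 Log-phase cells, passaged at least 2 generations, were seeded in 96-well plates and exposed to test compound in complete medium as a 5-fold dilution series in duplicate for 72 h. Fluorescence was read by Alamar blue and EC50 fitted to a four-parameter curve (Min, Max, Slope).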

[2] = system: Human Monocytic Leukemia MV4-11; test: as above; settings: Homo sapiens, MV4-11, MV4;11 cells
How it was run: as §1

HUVEC = test: Cell proliferation experiment (EC50), HUVEC; settings: Homo sapiens
PBMC = test: Cell proliferation experiment (EC50), PBMC
[3] = system: Human Colon Cancer HCT-116; test: Cell proliferation experiment (Alarm blue, 72 h, EC50); settings: Homo sapiens, HCT-116; HCT116 cells
How it was run: as §1

PLK1 = biological target: T1, PLK1 (Homo sapiens, UniProt P53350); test: Western blot, protein degradation (DC50); settings: 6 h; read-out: PLK1 DC50 (6 h)
T1 construct: endogenous in cells
Protocol: (§2) Cells were treated with the compound for a period of time, after that the cells were collected by centrifugation. After washing with PBS, the cells were lysed by adding RIPA buffer; the cell lysate were added to the loading buffer and then appropriate volume were taken and slowly added to the corresponding wells of the gel plate, and run the SDS-PAGE gel (4%-12%). After running the gel, transferred to the PVDF membrane and sealed with 5% skimmed milk powder at room temperature for 1 hour. The membrane was placed in the primary antibody diluted with 5% skimmed milk powder and shaked slowly overnight at 4° C. After incubation with primary antibody, the membrane was washed 3 times using a TBST shaker; added secondary antibody diluted with 5% skimmed milk powder corresponding to the primary antibody, and shaked slowly at room temperature for 1 hour. After incubation with secondary antibody, the membrane was washed 3 times using the TBST shaker again. The PVDF membrane was flatted in the cassette, the strip was evenly infiltrated with ECL developer solution, and placed in ChemDoc XRS+ gel imager for taking pictures. The intensity of protein bands was analyzed quantitatively using ImageJ software.

Human Colon Cancer HT-29 = test: Cell proliferation experiment (Alarm blue, 72 h, EC50); settings: Homo sapiens; HT-29 cells
How it was run: as §1

[4] = system: Human Glioma Cells U-87 MG; test: as above; settings: Homo sapiens; U-87MG cells
How it was run: as §1

[5] = system: Human Small Cell Lung Cancer NCI-H82; test: as above; settings: Homo sapiens, NCI-H82; NCIH82 cells
How it was run: as §1

BRD4 = biological target: T2, BRD4 (Homo sapiens, UniProt O60885); test: Western blot, protein degradation (DC50); settings: 6 h; read-out: BRD4 DC50 (6 h)
T2 construct: endogenous in cells
Protocol: as §2

Daudi = test: Cell proliferation experiment (EC50), Daudi; settings: Homo sapiens; Daudi cells

T1 sequence (P53350 whole entry): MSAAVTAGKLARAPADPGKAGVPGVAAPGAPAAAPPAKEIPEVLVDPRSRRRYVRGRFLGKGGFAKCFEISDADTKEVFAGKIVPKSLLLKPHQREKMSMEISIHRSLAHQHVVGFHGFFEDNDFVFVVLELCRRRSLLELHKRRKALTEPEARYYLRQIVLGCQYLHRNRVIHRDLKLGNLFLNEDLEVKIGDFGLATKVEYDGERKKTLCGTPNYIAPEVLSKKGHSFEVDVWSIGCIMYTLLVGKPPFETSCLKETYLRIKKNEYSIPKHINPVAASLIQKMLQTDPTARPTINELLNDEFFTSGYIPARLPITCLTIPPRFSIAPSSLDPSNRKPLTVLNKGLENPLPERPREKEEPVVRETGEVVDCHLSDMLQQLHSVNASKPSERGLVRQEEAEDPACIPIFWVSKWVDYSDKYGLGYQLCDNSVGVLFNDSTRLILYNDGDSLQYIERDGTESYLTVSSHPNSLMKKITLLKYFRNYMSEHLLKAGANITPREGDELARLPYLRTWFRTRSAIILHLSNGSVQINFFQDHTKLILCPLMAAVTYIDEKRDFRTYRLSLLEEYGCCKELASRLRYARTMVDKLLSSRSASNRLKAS

Structure (SMILES)	EC50 [1] [nM]	EC50 [2] [nM]	EC50 (HUVEC) [nM]	EC50 (PBMC) [nM]	EC50 [3] [nM]	DC50 (PLK1) [nM]	EC50 (Human Colon Cancer HT-29) [nM]	EC50 [4] [nM]	EC50 [5] [nM]	DC50 (BRD4) [nM]	EC50 (Daudi) [nM]
O=C1CCC(N2Cc3c(NC(=O)CCOCCOCCOCCNCCOCCNC(=O)[C@]4(Cc5cccc(Nc6nccs6)n5)CC[C@@H](Oc5cccc(Cl)c5F)CC4)cccc3C2=O)C(=O)N1 (some centres unmarked) [UB-180804]	> 1000	100 to 1000	> 1000	> 1000							
O=C1CCC(N2Cc3c(NC(=O)CNCCOCCN4CCN(CCNC(=O)[C@]5(Cc6cccc(Nc7nccs7)n6)CC[C@@H](Oc6cccc(Cl)c6F)CC5)CC4)cccc3C2=O)C(=O)N1 (some centres unmarked) [UB-180810]		100 to 1000	> 1000	> 1000	100 to 1000	< 10					
CC[C@@H]1C(=O)N(C)c2cnc(Nc3ccc(C(=O)NCCOCCOCCOCCOCCNCC#Cc4cccc5c4CN(C4CCC(=O)NC4=O)C5=O)cc3OC)nc2N1C1CCCC1 (some centres unmarked) [UB-180844]		< 10				10 to 100	100 to 1000	100 to 1000	100 to 1000	10 to 100	100 to 1000
CC[C@@H]1C(=O)N(C)c2cnc(Nc3ccc(C(=O)NCCOCCOCCNCC#Cc4cccc5c4CN(C4CCC(=O)NC4=O)C5=O)cc3OC)nc2N1C1CCCC1 (some centres unmarked) [UB-180845]		< 10					100 to 1000	100 to 1000	100 to 1000	< 10	100 to 1000
CC[C@@H]1C(=O)N(C)c2cnc(Nc3ccc(C(=O)NCCOCCOCCOCCNCC#Cc4cccc5c4CN(C4CCC(=O)NC4=O)C5=O)cc3OC)nc2N1C1CCCC1 (some centres unmarked) [UB-180846]		< 10					100 to 1000	100 to 1000	100 to 1000	10 to 100	100 to 1000
CC[C@@H]1C(=O)N(C)c2cnc(Nc3ccc(C(=O)NCCOCCOCCOCCNCCCc4cccc5c4CN(C4CCC(=O)NC4=O)C5=O)cc3OC)nc2N1C1CCCC1 (some centres unmarked) [UB-180847]		100 to 1000					100 to 1000	100 to 1000	100 to 1000		100 to 1000
CC[C@@H]1C(=O)N(C)c2cnc(Nc3ccc(C(=O)NCc4cn(CCN(C)CCC(=O)Nc5cccc6c5CN(C5CCC(=O)NC5=O)C6=O)nn4)cc3OC)nc2N1C1CCCC1 (some centres unmarked) [UB-180848]		< 10					100 to 1000	100 to 1000	100 to 1000		100 to 1000
CC[C@@H]1C(=O)N(C)c2cnc(Nc3ccc(C(=O)NC4CCN(CCOCCN(CCO)CC(=O)Nc5cccc6c5CN(C5CCC(=O)NC5=O)C6=O)CC4)cc3OC)nc2N1C1CCCC1 (some centres unmarked) [UB-180849]		100 to 1000					100 to 1000	100 to 1000	100 to 1000		100 to 1000
CC[C@@H]1C(=O)N(C)c2cnc(Nc3ccc(C(=O)NCCCC[C@@H](N)C(=O)Nc4cccc5c4CN(C4CCC(=O)NC4=O)C5=O)cc3OC)nc2N1C1CCCC1 (some centres unmarked) [UB-180855]		100 to 1000					100 to 1000	100 to 1000	100 to 1000		100 to 1000
CC[C@@H]1C(=O)N(C)c2cnc(Nc3ccc(C(=O)NCCC[C@@H](N)C(=O)Nc4cccc5c4CN(C4CCC(=O)NC4=O)C5=O)cc3OC)nc2N1C1CCCC1 (some centres unmarked) [UB-180856]		100 to 1000					100 to 1000	100 to 1000	100 to 1000		100 to 1000
